Reference: US8168619B1, “Hormonal composition based on a progestational agent and an oestrogen and use thereof” (Laboratoire Theramex, priority 1999, dated 2012)
Where two headings read alike, the source gives them in different places.

How the values were obtained:
[1] = test system: ovulation; experiment: Dose inhibiting ovulation (literature); type: in vivo; details: NEUMANN; reference progestative norgestrel (=1)
Excerpt: (§1) 2) Apart from the above, it would be reasonable to think that the doses claimed should be based on data from clinical pharmacology and/or clinical data previously published and commonly accepted. Now, if the doses defined as in the PLUNKETT patents are considered, it is easy to see that in most cases the active doses published already a long time ago, i.e. before the said patents were filed (NEUMANN, 1977) or more recently (KUHL, 1996), are very coherent but only rarely lie within the dose ranges claimed in the patents in the name of PLUNKETT (Table 2).

[2] = Dose having a contraceptive effect (literature); type: in vivo; details: NEUMANN; reference progestative norgestrel (=1)
Excerpt: as §1

[3] = test system: endometrium; details: cited from earlier work
[4] = test system: ovulation; details: cited from earlier work
[5] = NEUMANN publication; cited from earlier work
[6] = test system: menopausal women; experiment: Sequential estrogen-progestative therapy: interval before periods after therapy is interrupted; type: in vivo; details: Day 13-22, with 30 μg ethinyl estradiol
Protocol: (§2) Menopausal women, whether naturally or as the result of surgery, were subjected to a sequential estrogen-progestative therapy. From Day 1 to Day 12 they received 30 μg of ethinyl estradiol and then, from Day 13 to Day 22, the same dose of ethinyl estradiol associated with different doses of nomegestrol acetate or chlormadinone acetate. The doses were as follows:
(§3) The number of women was between 2 and 11, depending on the group. There was then a therapeutic pause of 7 days followed by a second treatment cycle.
(§4) The parameters taken into account were as follows: • the interval before periods commenced after the therapy had been interrupted, following the first and second treatment cycles; • the histological appearance of the endometrium recovered in a biopsy carried out between Day 17 and Day 20 of the second cycle.

[7] = test system: endometrial cells; experiment: Sequential estrogen-progestative therapy: histological appearance of endometrium biopsy; type: in vivo, women; details: for Number of mitoses (% of section in which mitoses were present), Glands: with 30 μg ethinyl estradiol, biopsy Day 17-20 of second cycle
Protocol: as §2, §3, §4

[8] = test system: endometrium; experiment: Dose inducing transformation of the endometrium (literature); type: in vivo; details: NEUMANN; reference progestative norgestrel (=1)
Excerpt: as §1

[9] = NEUMANN publication; cited from earlier work; remark: listed apart in the source

Row | SMILES | Dose ratio, Contraception (4) [2] | Dose necessary to induce transformation of the endometrium (1) ([3]; NEUMANN publication) [µg/day] | Dose necessary to inhibit ovulation (3) ([4]; NEUMANN publication) [µg/day] | Dose necessary to have a contraceptive effect (4) [5] [µg/day] | Dose ratio, Endometrium (1) [8] | Dose necessary to produce an adequate delay in the onset of periods (2), Menstruation [9] [µg/day] | also measured
1 | CC(=O)O[C@]1(C(C)=O)CC[C@H]2[C@@H]3C=C(Cl)C4=CC(=O)[C@@H]5C[C@@H]5[C@]4(C)[C@H]3CC[C@@]21C [CIP acetate, Cyproterone acetate] | 8.0 | 1000 | 1000 | 2000 |  |  | Dose ratio, Ovulation (3) [1]: 10.0; Dose necessary to induce transformation of the endometrium (1) ([3]; KUHL): 2000 µg/day; Dose necessary to inhibit ovulation (3) ([4]; KUHL): 1000 µg/day
2 | CC(=O)O[C@]1(C(C)=O)CC[C@H]2[C@@H]3C=C(Cl)C4=CC(=O)CC[C@]4(C)[C@H]3CC[C@@]21C [Chlormadinone acetate, chlormadinone acetate] |  |  |  |  |  |  | Interval before the appearance of periods after the therapy is discontinued ([6]; 0.1 mg/day): -2.3 ± 0.5 days; Interval before the appearance of periods after the therapy is discontinued ([6]; 0.5 mg/day): 2.0 ± 0.6 days; Interval before the appearance of periods after the therapy is discontinued ([6]; 1.0 mg/day): 3.8 ± 0.3 days; Interval before the appearance of periods after the therapy is discontinued ([6]; 2.0 mg/day): 3.8 ± 0.3 days; Interval before the appearance of periods after the therapy is discontinued ([6]; 5 mg/day): 5.5 ± 1.5 days; Interval before the appearance of periods after the therapy is discontinued ([6]; 10 mg/day): 5.5 ± 0.5 days; Number of mitoses (% of section in which mitoses were present), Glands ([7]; 0.1 mg/day): 90%; Mitosis in glandular cells ([7]; 1 mg/day, sequential therapy with 30 μg ethinyl estradiol): mitosis is still evident; Number of mitoses (% of section in which mitoses were present), Glands ([7]; 1 mg/day): 50%; Number of mitoses (% of section in which mitoses were present), Glands ([7]; 2 mg/day): 0%; Number of mitoses (% of section in which mitoses were present), Glands ([7]; 5 mg/day): 0%; Number of mitoses (% of section in which mitoses were present), Glands ([7]; 10 mg/day): 0%
3 | C#C[C@]1(O)CC[C@H]2[C@@H]3CCC4=CCCC[C@@H]4[C@H]3CC[C@@]21C [Lynoestrenol] | 10.0 | 5000 |  | 2500 | 4.2 |  | 
4 | CC(=O)O[C@]1(C(C)=O)CC[C@H]2[C@@H]3C[C@H](C)C4=CC(=O)CC[C@]4(C)[C@H]3CC[C@@]21C [MPA, medroxyprogesterone acetate] | 20.0 | 5500 |  | 5000 |  | 25000 | 
5 | C#C[C@]1(OC(C)=O)CC[C@H]2[C@@H]3CCC4=CC(=O)CC[C@@H]4[C@H]3CC[C@@]21C [Norethisterone acetate] | 4.0 | 4500 | 800 | 1000 | 3.8 |  | 
6 | C#C[C@]1(O)CC[C@H]2[C@@H]3CCC4=CC(=O)CC[C@@H]4[C@H]3CC[C@@]21C [Norethisterone] | 4.0 | 12500 | 800 | 1000 |  | 5000 | Dose necessary to induce transformation of the endometrium (1) ([3]; KUHL): 10000 µg/day; Dose necessary to inhibit ovulation (3) ([4]; KUHL): 400 µg/day
7 | C#C[C@]1(O)CC[C@H]2[C@@H]3CCC4=C(CCC(=O)C4)[C@H]3CC[C@@]21C [Norethynodrel] | 10.0 | 10000 | 6000 | 2500 | 8.3 | 7500 | 
